Here are results for one compound from ChEMBL document CHEMBL5614418, “Discovery of novel dihydropyrrolidone-thiadiazole compound crosstalk between the YycG/F two-component regulatory pathway and cell membrane homeostasis to combat methicillin-resistant Staphylococcus aureus” (Eur J Med Chem, 2024).

The source made the active and inactive calls. No cut-off for these calls is given here.

The subject of assay [1] is Staphylococcus aureus. Briefly: Synergistic antibacterial activity against methicillin resistant Staphylococcus aureus USA300 assessed as fold increase in MIC in presence of daptomycin. It is filed as functional.
Assay [2] has as its system Staphylococcus epidermidis. Briefly: Induction of matured biofilm eradication in Staphylococcus epidermidis SE1457 assessed as log reduction in bacterial count in biofilm at 8 times MIC incubated for 48 hrs in presence of daptomycin by agar plate method. The assay is classed as functional.
Assay [3] deals with Staphylococcus aureus. Briefly: Antibacterial activity against methicillin sensitive Staphylococcus aureus SA113 assessed as fold increase in MIC in presence of phosphatidyl glycerol by chequerboard microdilution assay. The assay is classed as functional.
Assay [4] relates to Staphylococcus aureus. Briefly: Antibacterial activity against methicillin sensitive Staphylococcus aureus SA113 assessed as reduction in membrane fluidity at 1 to 4 times MIC incubated for 30 mins by fluorescence based assay. The assay is classed as functional, organism-based.
Assay [5] deals with Staphylococcus epidermidis. Briefly: Inhibition of bacterial growth in Staphylococcus epidermidis SE1457 at MIC concentration measured upto 16 hrs. It is filed as functional.

Consider `O=C(C1=C(O)C(=O)N(c2nnc(SCc3ccccc3Cl)s2)C1c1ccccc1O)c1cc2ccccc2o1` (stereo not given), for which the “fold change (FC)” value in the assay with Staphylococcus aureus [1] worked out at 2; in the assay with Staphylococcus aureus [3], 16. Besides, in assay [2], the “log(activity)” value is on record as 3. Further, the result in the assay on Staphylococcus aureus [4] was Active. In addition, in assay [5], the “inhibition (INH)” value is reported as 100%.
